Here are results for 57 compounds from the METLIN SMRT retention time set (Domingo-Almenara et al. 2019).

This data set can be described thus: gradient 5% acetonitrile 3 min, to 50% in 2 min, to 85% in 15 min, held 3 min, 100 µL/min. To be noted: column: Zorbax Extend-C18 2.1 x 50 mm; eluents: water / acetonitrile, 0.1% formic acid. Put shortly: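 Pure standards were analyzed in mixtures of ~100 molecules using HPLC coupled to a quadrupole time-of-flight mass spectrometer, in both positive and negative ionization mode. Separation used a Zorbax Extend-C18 column (2.1 × 50 mm, 1.8 μm) at 100 μL/min, with water and acetonitrile each containing 0.1% formic acid. Dead and dwell volumes were 40 μL and 900 μL, and data were collected over 3 months. Retention time was read from computationally picked adduct peaks, each inspected manually.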
`Cc1ccc(Cn2c(=O)c(N3CCN(C(=O)NCc4ccco4)CC3)nc3cccnc32)cc1` came in with an RP-LC retention time of 706 s.

`CCOc1cccc(-c2noc(Cc3nnc(-c4cccc(F)c4)o3)n2)c1` displayed an RP-LC retention time of 1070 s.

With `O=C(O)c1cc(-c2c[nH]c3ccccc23)nc2ccccc12`, the RP-LC retention time came to 624 s.

Regarding `CCOC(=O)c1c(C)[nH]c(C(=O)N2CCC(C(C)C(=O)NCc3ccc(OCC)cc3)CC2)c1C` (configuration not stated), the RP-LC retention time was 860 s.

With `O=C(c1ccc(-c2cccnc2)nc1)N1CCN(c2cccc(Cl)c2)CC1`, the RP-LC retention time was 726 s.

`O=C(C1CCCN(c2cnc3nccnc3c2)C1)N1CCN(c2ccccn2)CC1` (configuration not stated) displayed an RP-LC retention time of 568 s.

`CC(C)Oc1ccc(C(=O)N[C@H](CNC(=O)CN(C)C)Cc2ccc(-c3cn4cccc([C@H](C)O)c4n3)cc2)cc1Cl` showed an RP-LC retention time of 664 s.

On to `O=C(NC1CCCCC1)N1CCN(c2ncccc2-c2nnc(C3CC3)o2)CC1`, for which the RP-LC retention time came out at 745 s.

As to `CCOc1ccc(NC(=O)c2cnc(N3CCN(CC)CC3)nc2N)cc1`, the RP-LC retention time is 609 s.

The compound `O=C(N[C@H]1C[C@@H]2C[C@H]1CN2C(=O)NCc1cccc(F)c1)c1cccs1` showed an RP-LC retention time of 738 s.

`CCOC(=O)CNC(=O)NCc1ccc2ncccc2c1`: the RP-LC retention time stood at 596 s.

In turn, `Cc1cc(C)cc(N2CCC(NC(=O)Nc3ccccc3Cl)C2=O)c1` (configuration not stated) displayed an RP-LC retention time of 936 s.

`CCc1ccccc1NC(=O)C1CCN(S(=O)(=O)c2ccc3c(c2)NC(=O)C(CC)O3)CC1` (configuration not stated): the RP-LC retention time is 893 s.

With `O=C(NCc1noc(CCc2ccccc2)n1)c1ccc(-c2noc(C3CC3)n2)cc1`, the RP-LC retention time was determined as 977 s.

Consider `CCN(CC)S(=O)(=O)c1ccc2c(c1)CC(C(=O)N1CCOCC1)N2C(C)=O` (configuration not stated), for which the RP-LC retention time was 663 s.

`Cc1ccc(-n2cc(C(=O)O)nn2)cc1F` had an RP-LC retention time of 684 s.

`CCN1C(=O)C2CC3(CCN(Cc4cn(C)c5ccc(OC)cc45)CC3)CN2C1=O` (configuration not stated) yielded an RP-LC retention time of 584 s.

The compound `O=C(NCc1ccccc1Br)c1cn2c(n1)CCCC2` showed an RP-LC retention time of 610 s.

The compound `CCc1nc(OCC(=O)NCCOC)c2c(-c3ccc(F)cc3)noc2n1` gave an RP-LC retention time of 845 s.

For the compound `CCN1c2cc(F)ccc2C(=O)NC12CCN(C(=O)c1ccc(OC)cc1OC)CC2`, the RP-LC retention time came out at 781 s.

In the case of `Cc1cc(C)c2c(N3CCOCC3)nc(C(=O)N3CCC(C)CC3)nc2n1`, the RP-LC retention time turned out to be 626 s.

As for `CCN1C(=O)c2cc(S(=O)(=O)Nc3ccc(Cl)cc3F)ccc2Oc2cccnc21`, the RP-LC retention time came to 1070 s.

As to `CCS(=O)(=O)N1CC(=O)N(c2ccc(Cl)cc2C)C(C)(C(=O)NCc2ccccc2)C1` (configuration not stated), the RP-LC retention time worked out at 906 s.

The compound `CC(=O)N1CCC(C(=O)NC2CCCN(c3cc(-c4ccc(Cl)cc4)[nH]n3)C2)CC1` (configuration not stated) came in with an RP-LC retention time of 655 s.

As to `Cn1c(=O)c2cc(C(=O)N3CCN(c4ccccc4F)CC3)sc2n(C)c1=O`, the RP-LC retention time is 765 s.

For the compound `COc1ccc(Cn2c(=O)c3sccc3n(Cc3nc(-c4ccccc4OC)no3)c2=O)cc1`, the RP-LC retention time is 970 s.

With `CC(C)(C)c1ccc(-c2noc(Cn3c(=O)n(-c4ccccc4F)c(=O)c4sccc43)n2)cc1`, the RP-LC retention time came to 1220 s.

As for `CCOC(=O)c1cc(C2CC2)nc2c1c(=O)n(Cc1cccc(Br)c1)c(=O)n2C`, the RP-LC retention time is 1280 s.

The compound `CCOC(=O)c1ccc(NC(=O)Cn2cccc(-c3nc(-c4ccc(F)cc4)no3)c2=O)cc1` registered an RP-LC retention time of 922 s.

`Cn1c(=O)n(CC(=O)O)c(=O)c2c1nc1n2CCCN1c1ccc(Br)cc1` registered an RP-LC retention time of 751 s.

Turning to `COc1ccc(NC(=O)C2CCc3nc(N4CCOCC4)ncc3C2)cc1F` (configuration not stated), the RP-LC retention time came out at 718 s.

`CC(C)c1noc(C2CCCN(S(=O)(=O)c3cn(C)cn3)CCC(=O)NCC2)n1` (configuration not stated) had an RP-LC retention time of 640 s.

The compound `COc1ccc(-n2cc(C(=O)Nc3ccc(OC)cc3OC)nn2)cc1` came in with an RP-LC retention time of 1000 s.

For `CC(C)Oc1ccc(C(=O)Nc2nc(-c3cccnc3)cs2)cc1`, the RP-LC retention time was 660 s.

In turn, `CCn1cnc2ccc(C(=O)NC3CCCC3)cc2c1=O` returned an RP-LC retention time of 688 s.

In turn, `Cc1sc(-c2nnc(C(C)C)o2)cc1NS(C)(=O)=O` gave an RP-LC retention time of 808 s.

For the compound `COc1ccc(NS(=O)(=O)c2cc(-c3[nH]ncc3C(=O)N(C)C)oc2C)cc1`, the RP-LC retention time was determined as 658 s.

On to `COc1ccc(CNC(=O)C2CCCN(c3nc4ccccc4n(Cc4ccccc4)c3=O)C2)cc1` (configuration not stated), for which the RP-LC retention time was 1090 s.

As to `COc1ccc(NC(=O)c2cn(CC3CCCO3)cc3c(=O)n(-c4ccccc4)nc2-3)cc1` (configuration not stated), the RP-LC retention time came out at 937 s.

The compound `CCC(=O)Nc1ccc(-n2cnc(C(=O)NCC3CC3)c2)nc1` gave an RP-LC retention time of 660 s.

As to `COCC1(O)CCOC2(CCN(Cc3ccccc3F)CC2)C1` (configuration not stated), the RP-LC retention time was found to be 544 s.

The compound `Cn1cc(CCN2CCN(S(=O)(=O)c3ccccc3F)CC2)c2cccnc21` came in with an RP-LC retention time of 608 s.

In turn, `Cc1ccsc1C(=O)N1CCC2(CC1)CC(N1CCOCC1)CCO2` (configuration not stated) showed an RP-LC retention time of 577 s.

On to `Cc1ccc(CNC(=O)c2cccc(CN3C(=O)C4CCCN4C(=O)c4ccccc43)c2)o1` (configuration not stated), for which the RP-LC retention time worked out at 757 s.

`Cc1nc(OCC(=O)NC2CCCCC2)c2c(-c3cccc(F)c3)noc2n1` came in with an RP-LC retention time of 990 s.

For `O=C(Nc1ccccc1F)c1c(O)c2cccnc2n(-c2ccc(F)cc2)c1=O`, the RP-LC retention time came out at 1220 s.

In the case of `O=C(O)c1cn(-c2ccc(F)c(Cl)c2)nn1`, the RP-LC retention time was determined as 727 s.

Compound `Cc1ccc(-c2nnc(N3CCC(C(=O)NCCN4CCOCC4)CC3)o2)cc1` showed an RP-LC retention time of 614 s.

Compound `CCN1CCCn2cc(S(=O)(=O)Nc3ccc(C)cc3F)cc2C1=O` returned an RP-LC retention time of 729 s.

`COc1cccc(NC(=O)C2CCN(S(=O)(=O)c3ccc4[nH]c(=O)sc4c3)CC2)c1` showed an RP-LC retention time of 783 s.

In turn, `O=C(Cn1cccc(-c2nc(-c3ccc(Cl)cc3)no2)c1=O)N1CCCc2ccccc21` yielded an RP-LC retention time of 1040 s.

`CCOC(=O)c1nc(Nc2cccc(C)c2)c2ccccc2n1` gave an RP-LC retention time of 890 s.

With `Cc1nn(-c2ccccc2)c(C)c1S(=O)(=O)N1CCC(C(=O)N2CCc3ccccc3C2)CC1`, the RP-LC retention time was found to be 986 s.

In turn, `Cc1cc2nc(Nc3ncc4c(n3)CC(c3ccccc3)CC4=O)nc(C)c2cc1C` (configuration not stated) had an RP-LC retention time of 793 s.

`CC(C)C(=O)Nc1ccc(-n2cnc(C(=O)NCc3ccc(Cl)cc3)c2)nc1` came in with an RP-LC retention time of 796 s.

In turn, `Cn1nc(C(=O)N2C[C@@H]3C[C@H](NC(=O)c4ccccc4)[C@H]2C3)c2ccccc21` returned an RP-LC retention time of 788 s.

`Cc1cccc2nnc(N3CCCC(C(=O)Nc4ccc(N5CCOCC5)cc4)C3)n12` (configuration not stated): the RP-LC retention time is 625 s.
